Data on nine compounds can be found in ChEMBL document CHEMBL4842325, “Lanosterol 14α-demethylase (CYP51)/histone deacetylase (HDAC) dual inhibitors for treatment of Candida tropicalis and Cryptococcus neoformans infections” (Eur J Med Chem, 2021).

In brackets after ≈: the same amount, converted by molar mass. Some results are limits rather than exact numbers.

Common to all, as to assay type: functional
For experiment [1], the system named is Candida albicans. Briefly: microbe, parasite or virus in culture. The following applies: 7781.
Description: Antifungal activity against fluconazole-sensitive Candida albicans 7781 assessed as inhibition of fungal growth
Experiment [2] concerns Cryptococcus neoformans. Description: microbe, parasite or virus in culture. To be noted: H99, time 72 hrs.
Description: Antifungal activity against Cryptococcus neoformans H99 assessed as inhibition of fungal growth incubated for 72 hrs by two-fold serial microdilution method
Experiment [3] deals with Candida albicans. Briefly: Antifungal activity against fluconazole-sensitive Candida albicans 9770 assessed as inhibition of fungal growth.
The subject of experiment [4] is Candida albicans. Description: Antifungal activity against fluconazole-sensitive Candida albicans SC5314 assessed as inhibition of fungal growth.
Experiment [5] has as its system Candida albicans. Briefly: microbe, parasite or virus in culture. The following applies: 0304103.
Description: Antifungal activity against fluconazole-sensitive Candida albicans 0304103 assessed as inhibition of fungal growth
The subject of experiment [6] is Candida albicans. Description: microbe, parasite or virus in culture. The following applies: 4108.
Description: Antifungal activity against fluconazole-sensitive Candida albicans 4108 assessed as inhibition of fungal growth
The subject of experiment [7] is Candida tropicalis. Briefly: microbe, parasite or virus in culture. To be noted: 3890, time 48 hrs.
Description: Antifungal activity against fluconazole-resistant Candida tropicalis 3890 assessed as inhibition of fungal growth incubated for 48 hrs by two-fold serial microdilution method
For experiment [8], the system named is Candida albicans. Description: Antifungal activity against fluconazole-sensitive Candida albicans 10061 assessed as inhibition of fungal growth.
In experiment [9] the test system is Candida tropicalis. Briefly: microbe, parasite or virus in culture. The following applies: 5008, time 48 hrs.
Description: Antifungal activity against fluconazole-resistant Candida tropicalis 5008 assessed as inhibition of fungal growth incubated for 48 hrs by two-fold serial microdilution method

As to `O=C(CCCCCOc1ccc(CN2CCN(CC(O)(Cn3cncn3)c3ccc(F)cc3F)CC2)cc1)NO` (stereo not drawn), the MIC80 came to 2 µg/mL (≈ 3.58 µM) in experiment [1]; 8 µg/mL (≈ 14.3 µM) in [2]; 32 µg/mL (≈ 57.3 µM) in [3]; 1 µg/mL (≈ 1.79 µM) in [4]; 32 µg/mL (≈ 57.3 µM) in experiment [5]; 16 µg/mL (≈ 28.6 µM) in experiment [6]. Also, the figures for the MIC80 in experiment [7], in experiment [8] and in experiment [9] were 2 µg/mL (≈ 3.58 µM), greater than 64 µg/mL and 1 µg/mL (≈ 1.79 µM), respectively.

Take `O=C(CCCCOc1ccc(CN2CCN(CC(O)(Cn3cncn3)c3ccc(F)cc3F)CC2)cc1)NO` (stereo not drawn): the MIC80 in experiment [1] is 4 µg/mL (≈ 7.34 µM); in [2], 8 µg/mL (≈ 14.7 µM); in [3] it was greater than 64 µg/mL; in experiment [4], 1 µg/mL (≈ 1.84 µM); in experiment [5], 8 µg/mL (≈ 14.7 µM); in experiment [6], 32 µg/mL (≈ 58.8 µM). For the same compound, the MIC80 in [7] is 2 µg/mL (≈ 3.67 µM); in [8], greater than 64 µg/mL; in experiment [9] it was 4 µg/mL (≈ 7.34 µM).

Consider `O=C(CCCOc1ccc(CN2CCN(CC(O)(Cn3cncn3)c3ccc(F)cc3F)CC2)cc1)NO` (stereo not drawn), for which the MIC80 in experiment [1] was 8 µg/mL (≈ 15.1 µM); in experiment [2], 8 µg/mL (≈ 15.1 µM); in experiment [3], greater than 64 µg/mL; in [4], 4 µg/mL (≈ 7.54 µM); in [5] it was 8 µg/mL (≈ 15.1 µM); in experiment [6], 16 µg/mL (≈ 30.2 µM). Moreover, the MIC80 was found to be 4 µg/mL (≈ 7.54 µM) in experiment [7], 32 µg/mL (≈ 60.3 µM) in [8] and 4 µg/mL (≈ 7.54 µM) in experiment [9].

As for `O=C(CCCCCCOc1ccc(CN2CCN(CC(O)(Cn3cncn3)c3ccc(F)cc3F)CC2)cc1)NO` (stereo not drawn), the MIC80 in [1] worked out at 1 µg/mL (≈ 1.75 µM); in experiment [2], 0.5 µg/mL (≈ 0.873 µM); in [3] it was 32 µg/mL (≈ 55.9 µM); in experiment [4] it was 1 µg/mL (≈ 1.75 µM); in experiment [5], 16 µg/mL (≈ 27.9 µM); in experiment [6], 8 µg/mL (≈ 14 µM). For the same compound, the MIC80 in experiment [7] came to 2 µg/mL (≈ 3.49 µM); in [8], 32 µg/mL (≈ 55.9 µM); in experiment [9], 0.5 µg/mL (≈ 0.873 µM).

Consider `O=C(NO)c1ccc(CCCCn2ncn(-c3ccc(CN4CCN(CC(O)(Cn5cncn5)c5ccc(F)cc5F)CC4)cc3)c2=O)cc1` (stereo not drawn), for which the MIC80 is 16 µg/mL (≈ 23.3 µM) in [1]; 8 µg/mL (≈ 11.6 µM) in [2]; greater than 64 µg/mL in experiment [3]; greater than 64 µg/mL in experiment [4]; greater than 64 µg/mL in experiment [5]; greater than 64 µg/mL in experiment [6]. Moreover, the MIC80 in experiment [7], in experiment [8] and in experiment [9] was greater than 64 µg/mL each time.

Take `O=C(CCCCCCn1ncn(-c2ccc(CN3CCN(CC(O)(Cn4cncn4)c4ccc(F)cc4F)CC3)cc2)c1=O)NO` (stereo not drawn): the MIC80 was 32 µg/mL (≈ 50 µM) in experiment [1]; 64 µg/mL (≈ 100 µM) in [2]; greater than 64 µg/mL in [3]; greater than 64 µg/mL in [4]; greater than 64 µg/mL in [5]; greater than 64 µg/mL in experiment [7]. In experiment [9], this compound came in with an MIC80 greater than 64 µg/mL.

Turning to `C[C@@H](c1ncncc1F)[C@](O)(Cn1cncn1)c1ccc(F)cc1F` [VORICONAZOLE], the MIC80 was greater than 64 µg/mL in experiment [1]; 0.0625 µg/mL (≈ 0.179 µM) in [2]; less than 0.125 µg/mL in experiment [4]; greater than 64 µg/mL in experiment [5]; greater than 64 µg/mL in experiment [6]; greater than 64 µg/mL in experiment [7]. The MIC80 in experiment [9] is greater than 64 µg/mL.

Take `O=C(CCCCCCCn1ncn(-c2ccc(CN3CCN(CC(O)(Cn4cncn4)c4ccc(F)cc4F)CC3)cc2)c1=O)NO` (stereo not drawn): the MIC80 in experiment [1] was 64 µg/mL (≈ 97.9 µM); in [2], 32 µg/mL (≈ 48.9 µM); in experiment [3], greater than 64 µg/mL; in [4], greater than 64 µg/mL; in [5], 64 µg/mL (≈ 97.9 µM); in [7] it was greater than 64 µg/mL. Moreover, the MIC80 in experiment [9] was greater than 64 µg/mL.

For the compound `CCC(C)n1ncn(-c2ccc(N3CCN(c4ccc(OCC5COC(Cn6cncn6)(c6ccc(Cl)cc6Cl)O5)cc4)CC3)cc2)c1=O` (stereo not drawn) [ITRACONAZOLE], the MIC80 in [1] was greater than 64 µg/mL; in experiment [2] it was 0.125 µg/mL (≈ 0.177 µM); in experiment [4], 0.5 µg/mL (≈ 0.709 µM); in [5] it was greater than 64 µg/mL; in experiment [6] it was greater than 64 µg/mL; in experiment [7] it was greater than 64 µg/mL. In addition, the MIC80 in experiment [9] was greater than 64 µg/mL.
